In ChEMBL document CHEMBL4828735, “Discovery of N-((3S,4S)-4-(3,4-Difluorophenyl)piperidin-3-yl)-2-fluoro-4-(1-methyl-1H-pyrazol-5-yl)benzamide (Hu7691), a Potent and Selective Akt Inhibitor That Enables Decrease of Cutaneous Toxicity” (J Med Chem, 2021):
The source made the active and inactive calls. The calls are words filed in the database; no cut-off is given here.

Legend:
[1] = Toxicity in mouse assessed as prone posture at 150 mg/kg; assay type: organism-based; settings: in vivo
[2] = Toxicity in mouse assessed as reduction in activity at 150 mg/kg; assay type: organism-based; settings: in vivo
Homo sapiens [3] = organism: Homo sapiens; assay: Inhibition of PKA (unknown origin) at 0.5 uM
Homo sapiens [4] = organism: Homo sapiens; assay: Inhibition of PKG (unknown origin) at 0.5 uM
[5] = target: RAC-gamma serine/threonine-protein kinase (Homo sapiens, UniProt Q9Y243); assay: Inhibition of AKT3 (unknown origin)
[6] = target: Protein kinase C eta type (Homo sapiens, UniProt P24723); assay: Inhibition of PKCeta (unknown origin)
[7] = target: Protein kinase C theta type (Homo sapiens, UniProt Q04759); assay: Inhibition of PKCtheta (unknown origin)
[8] = target: Serine/threonine-protein kinase Sgk1 (Homo sapiens, UniProt O00141); assay: Inhibition of SGK (unknown origin)
[9] = target: Tyrosine-protein kinase ABL1 (Homo sapiens, UniProt P00519); assay: Inhibition of ABL (unknown origin)
[10] = target: Mitogen-activated protein kinase 9 (Homo sapiens, UniProt P45984); assay: Inhibition of JNK2 (unknown origin)
[11] = target: Serine/threonine-protein kinase Chk1 (Homo sapiens, UniProt O14757); assay: Inhibition of CHK1 (unknown origin)
[12] = target: Phosphatidylinositol 4,5-bisphosphate 3-kinase catalytic subunit alpha isoform (Homo sapiens, UniProt P42336); assay: Inhibition of PI3Kalpha (unknown origin)
HaCaT = assay: Induction of apoptosis in human HaCaT cells assessed as cleaved caspase 3 level at 2.25 to 36 uM after 24 hrs by Western blot analysis; assay type: cell-based; settings: dose 2.25-36 µM
[13] = Antiproliferative activity against human 95-D cells assessed as inhibition of cell growth incubated for 72 hrs by SRB method; assay type: functional, cell-based
OS-RC-2 = assay: Antiproliferative activity against human OS-RC-2 cells assessed as inhibition of cell growth incubated for 72 hrs by SRB method; assay type: functional, cell-based; settings: OS-RC-2, 72 h
KHOS/NP [14] = assay: Antiproliferative activity against human KHOS cells assessed as inhibition of cell growth incubated for 72 hrs by SRB method; assay type: functional, cell-based
MDA-MB-231 = assay: Antiproliferative activity against human MDA-MB-231 cells assessed as inhibition of cell growth incubated for 72 hrs by SRB method; assay type: functional, cell-based; settings: MDA-MB-231, 72 h
LNCaP = assay: Antiproliferative activity against human LNCaP cells assessed as inhibition of cell growth incubated for 72 hrs by SRB method; assay type: functional, cell-based
SK-OV-3 = assay: Antiproliferative activity against human SK-OV-3 cells assessed as inhibition of cell growth incubated for 72 hrs by SRB method; assay type: functional, cell-based; settings: SK-OV-3, 72 h
OVCAR-8 = assay: Antiproliferative activity against human OVCAR-8 cells assessed as inhibition of cell growth incubated for 72 hrs by SRB method; assay type: functional, cell-based; settings: OVCAR-8, 72 h
L02 = assay: Antiproliferative activity against human HL7702 cells assessed as inhibition of cell growth incubated for 72 hrs by SRB method; assay type: cell-based; settings: L02, 72 h
[15] = Antiproliferative activity against human HPDE6c7 cells assessed as inhibition of cell growth incubated for 72 hrs by SRB method; assay type: cell-based; settings: HPDE6c7, 72 h
Cytochrome P450 2C8 = Cytochrome P450 2C8 (Homo sapiens, UniProt P10632); assay: Inhibition of CYP2C8 (unknown origin); assay type: ADME
[16] = Microsomal stability in monkey liver microsomes assessed as half life at 50 uM preincubated for 5 mins with NADPH followed by compound addition and measured upto 60 mins by LC-MS/MS analysis; assay type: ADME, Macaca mulatta, Microsome; settings: rhesus monkey
[17] = Cmax in Sprague-Dawley rat at 15 mg/kg, ig measured upto 72 hrs by LC-MS/MS analysis; assay type: ADME, organism-based; parameters: route […], dose 15 mg/kg, time <=72; settings: in vivo, po
[18] = Cmax in Sprague-Dawley rat at 2 mg/kg, iv measured upto 24 hrs by LC-MS/MS analysis; assay type: ADME, organism-based; parameters: route intravenous, dose 2 mg/kg, time <=24; settings: in vivo
[19] = AUC(0 to t) in Beagle dog at 20 mg/kg, ig measured upto 96 hrs by LC-MS/MS analysis; assay type: ADME, organism-based, Canis lupus familiaris; parameters: route […], dose 20 mg/kg, time <=96; settings: in vivo, po
[20] = AUC(0 to infinity) in Beagle dog at 20 mg/kg, ig measured upto 96 hrs by LC-MS/MS analysis; assay type: ADME, organism-based, Canis lupus familiaris; parameters: route […], dose 20 mg/kg, time <=96; settings: in vivo, po
[21] = Drug metabolism in po dosed Sprague-Dawley rat feces assessed as M1 metabolite formation measured upto 24 hrs by UPLC-TOF-MS/MS analysis; assay type: ADME, organism-based; settings: in vivo
[22] = Drug metabolism in po dosed Sprague-Dawley rat feces assessed as M2 metabolite formation measured upto 24 hrs by UPLC-TOF-MS/MS analysis; assay type: ADME, organism-based; settings: in vivo
[23] = Drug metabolism in po dosed Sprague-Dawley rat bile assessed as M2 metabolite formation measured upto 24 hrs by UPLC-TOF-MS/MS analysis; assay type: ADME, organism-based; settings: in vivo
[24] = Drug metabolism in po dosed Sprague-Dawley rat bile assessed as M5 metabolite formation measured upto 24 hrs by UPLC-TOF-MS/MS analysis; assay type: ADME, organism-based; settings: in vivo
[25] = Drug metabolism in po dosed Sprague-Dawley rat blood assessed as M3 metabolite formation measured upto 6 hrs by UPLC-TOF-MS/MS analysis; assay type: ADME, organism-based; settings: in vivo
[26] = Toxicity in mouse assessed as death at 250 mg/kg; assay type: organism-based; settings: in vivo
[27] = Toxicity in Beagle dog assessed as maximum toxicity dose; parameters: species or system Canis lupus familiaris; settings: in vivo
[28] = Toxicity in Beagle dog assessed as thymic atrophy at 100 mg/kg; assay type: organism-based, Canis lupus familiaris; settings: in vivo
[29] = Toxicity in Sprague-Dawley rat assessed as appearance of skin lesions at 25 to 75 mg/kg administered daily for 4 weeks; assay type: organism-based; settings: in vivo, 672 h, dose 25-75 mg/kg
[30] = Toxicity in Sprague-Dawley rat assessed as effect on stomach at 25 to 75 mg/kg administered daily for 4 weeks by histopathological analysis; assay type: organism-based; settings: in vivo, 672 h, dose 25-75 mg/kg
[31] = Toxicity in Sprague-Dawley rat assessed as effect on ovaries at 25 to 75 mg/kg administered daily for 4 weeks by histopathological analysis; assay type: organism-based; settings: in vivo, 672 h, dose 25-75 mg/kg
[32] = Toxicity in Sprague-Dawley rat assessed as effect on bone marrow at 25 to 75 mg/kg administered daily for 4 weeks by histopathological analysis; assay type: organism-based; settings: in vivo, 672 h, dose 25-75 mg/kg
786-0 = assay: Antitumor activity against human 786-0 cells xenografted in ig dosed BALB/c nude mouse assessed as tumor growth inhibition administered once daily for 22 days; assay type: functional, organism-based; settings: dose 12.5-50 mg/kg, time 22.0 day
KHOS/NP [33] = assay: Antitumor activity against human KHOS cells xenografted in dosed BALB/c nude mouse assessed as tumor growth inhibition at 12.5 to 50 mg/kg, ig administered once daily for 22 days; assay type: functional; settings: dose 12.5-50 mg/kg, time 22 day
[34] = Toxicity in BALB/c nude mouse xenografted with human 786-0 cells assessed as change in body weight at 12.5 to 50 mg/kg, ig administered once daily for 22 days; assay type: organism-based; settings: in vivo, po, 528 h, dose 12.5-50 mg/kg, time 22 day
[35] = Toxicity in BALB/c nude mouse xenografted with human 786-0 cells assessed as mortality at 12.5 to 50 mg/kg, ig administered once daily for 22 days; assay type: organism-based; settings: in vivo, po, 528 h, dose 12.5-50 mg/kg, time 22 day
[36] = Toxicity in BALB/c nude mouse xenografted with human KHOS cells assessed as mortality at 12.5 to 50 mg/kg, ig administered once daily for 22 days; assay type: organism-based; settings: in vivo, po, 528 h, dose 12.5-50 mg/kg, time 22 day

Mitogen-activated protein kinase 9, sequence (P45984 whole entry): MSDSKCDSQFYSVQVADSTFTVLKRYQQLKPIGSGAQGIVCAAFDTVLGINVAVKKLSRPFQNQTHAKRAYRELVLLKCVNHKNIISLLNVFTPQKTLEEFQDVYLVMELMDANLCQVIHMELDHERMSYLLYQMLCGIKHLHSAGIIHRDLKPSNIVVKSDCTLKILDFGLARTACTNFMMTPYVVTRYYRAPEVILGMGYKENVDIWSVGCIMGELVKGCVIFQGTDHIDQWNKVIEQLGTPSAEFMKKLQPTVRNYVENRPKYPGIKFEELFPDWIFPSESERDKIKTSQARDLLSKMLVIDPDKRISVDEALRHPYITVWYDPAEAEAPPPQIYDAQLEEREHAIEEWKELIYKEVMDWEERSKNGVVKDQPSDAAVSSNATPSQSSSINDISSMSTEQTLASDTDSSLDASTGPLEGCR
Phosphatidylinositol 4,5-bisphosphate 3-kinase catalytic subunit alpha isoform, sequence (P42336 whole entry, canonical isoform): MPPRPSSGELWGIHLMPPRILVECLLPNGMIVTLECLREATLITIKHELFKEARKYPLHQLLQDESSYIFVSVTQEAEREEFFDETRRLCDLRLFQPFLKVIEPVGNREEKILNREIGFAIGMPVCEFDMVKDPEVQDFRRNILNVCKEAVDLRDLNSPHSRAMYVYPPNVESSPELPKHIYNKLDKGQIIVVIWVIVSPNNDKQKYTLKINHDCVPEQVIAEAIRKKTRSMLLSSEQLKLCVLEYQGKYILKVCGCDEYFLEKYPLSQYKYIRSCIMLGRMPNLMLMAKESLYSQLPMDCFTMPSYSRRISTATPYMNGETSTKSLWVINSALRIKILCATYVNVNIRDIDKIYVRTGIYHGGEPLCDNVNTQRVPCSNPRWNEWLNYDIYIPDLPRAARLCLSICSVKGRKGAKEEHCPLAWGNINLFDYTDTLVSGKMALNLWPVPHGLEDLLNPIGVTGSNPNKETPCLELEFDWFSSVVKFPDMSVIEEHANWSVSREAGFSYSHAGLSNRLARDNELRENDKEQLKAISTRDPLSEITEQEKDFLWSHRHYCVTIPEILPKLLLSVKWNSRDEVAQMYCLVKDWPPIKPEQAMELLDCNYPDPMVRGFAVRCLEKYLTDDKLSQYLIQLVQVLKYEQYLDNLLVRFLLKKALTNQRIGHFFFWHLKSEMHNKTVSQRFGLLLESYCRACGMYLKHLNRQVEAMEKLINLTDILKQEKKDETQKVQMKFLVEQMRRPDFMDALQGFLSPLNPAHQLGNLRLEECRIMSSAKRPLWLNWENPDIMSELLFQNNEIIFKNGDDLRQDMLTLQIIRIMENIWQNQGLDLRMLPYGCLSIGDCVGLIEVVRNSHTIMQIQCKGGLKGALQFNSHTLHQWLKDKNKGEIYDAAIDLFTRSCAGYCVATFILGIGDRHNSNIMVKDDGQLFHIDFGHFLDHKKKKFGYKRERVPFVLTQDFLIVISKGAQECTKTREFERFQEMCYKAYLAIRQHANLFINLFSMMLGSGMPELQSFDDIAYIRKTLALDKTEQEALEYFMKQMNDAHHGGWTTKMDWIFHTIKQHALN
Tyrosine-protein kinase ABL1, sequence (P00519 whole entry): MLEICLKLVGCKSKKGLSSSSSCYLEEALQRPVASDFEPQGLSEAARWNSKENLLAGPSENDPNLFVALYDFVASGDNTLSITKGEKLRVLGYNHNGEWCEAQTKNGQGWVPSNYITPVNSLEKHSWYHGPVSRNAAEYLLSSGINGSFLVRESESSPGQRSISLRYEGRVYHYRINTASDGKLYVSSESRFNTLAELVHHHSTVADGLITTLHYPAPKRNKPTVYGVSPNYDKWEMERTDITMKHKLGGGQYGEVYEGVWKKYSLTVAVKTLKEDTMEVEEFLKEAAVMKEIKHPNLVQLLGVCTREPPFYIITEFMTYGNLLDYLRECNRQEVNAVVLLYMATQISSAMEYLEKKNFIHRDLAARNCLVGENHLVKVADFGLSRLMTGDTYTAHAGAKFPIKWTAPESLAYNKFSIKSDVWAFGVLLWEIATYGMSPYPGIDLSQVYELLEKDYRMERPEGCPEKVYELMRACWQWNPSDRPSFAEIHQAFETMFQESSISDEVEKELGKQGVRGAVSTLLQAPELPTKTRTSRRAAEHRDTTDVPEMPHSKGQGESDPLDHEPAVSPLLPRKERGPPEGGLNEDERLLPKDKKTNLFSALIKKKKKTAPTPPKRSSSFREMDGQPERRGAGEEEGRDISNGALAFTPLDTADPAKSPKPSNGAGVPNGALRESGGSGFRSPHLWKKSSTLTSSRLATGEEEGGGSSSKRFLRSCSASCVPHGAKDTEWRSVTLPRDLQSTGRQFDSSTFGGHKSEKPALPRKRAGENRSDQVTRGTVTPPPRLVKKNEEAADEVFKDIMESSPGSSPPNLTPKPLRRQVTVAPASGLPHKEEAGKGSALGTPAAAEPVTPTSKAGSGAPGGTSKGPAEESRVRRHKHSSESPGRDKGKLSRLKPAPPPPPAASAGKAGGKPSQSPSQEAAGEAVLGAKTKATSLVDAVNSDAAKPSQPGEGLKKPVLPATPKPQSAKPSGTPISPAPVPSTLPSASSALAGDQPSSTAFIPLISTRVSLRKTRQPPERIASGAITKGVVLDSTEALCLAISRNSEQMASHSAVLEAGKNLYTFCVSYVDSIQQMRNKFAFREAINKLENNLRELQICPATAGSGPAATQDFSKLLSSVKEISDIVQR
RAC-gamma serine/threonine-protein kinase, sequence (Q9Y243 whole entry): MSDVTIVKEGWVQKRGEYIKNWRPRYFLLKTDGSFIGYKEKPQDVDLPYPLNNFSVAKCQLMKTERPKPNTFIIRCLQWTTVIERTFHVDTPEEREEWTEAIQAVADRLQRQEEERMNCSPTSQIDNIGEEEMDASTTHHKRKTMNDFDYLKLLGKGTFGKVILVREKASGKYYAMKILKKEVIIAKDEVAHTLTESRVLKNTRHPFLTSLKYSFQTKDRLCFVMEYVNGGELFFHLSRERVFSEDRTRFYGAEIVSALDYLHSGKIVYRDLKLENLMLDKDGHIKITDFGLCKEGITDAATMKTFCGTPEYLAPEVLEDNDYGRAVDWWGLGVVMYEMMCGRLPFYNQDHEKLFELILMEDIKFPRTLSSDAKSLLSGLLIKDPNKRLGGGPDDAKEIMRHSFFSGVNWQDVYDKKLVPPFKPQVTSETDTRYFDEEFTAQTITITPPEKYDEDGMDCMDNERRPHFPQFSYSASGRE
Serine/threonine-protein kinase Chk1, sequence (O14757 whole entry, canonical isoform): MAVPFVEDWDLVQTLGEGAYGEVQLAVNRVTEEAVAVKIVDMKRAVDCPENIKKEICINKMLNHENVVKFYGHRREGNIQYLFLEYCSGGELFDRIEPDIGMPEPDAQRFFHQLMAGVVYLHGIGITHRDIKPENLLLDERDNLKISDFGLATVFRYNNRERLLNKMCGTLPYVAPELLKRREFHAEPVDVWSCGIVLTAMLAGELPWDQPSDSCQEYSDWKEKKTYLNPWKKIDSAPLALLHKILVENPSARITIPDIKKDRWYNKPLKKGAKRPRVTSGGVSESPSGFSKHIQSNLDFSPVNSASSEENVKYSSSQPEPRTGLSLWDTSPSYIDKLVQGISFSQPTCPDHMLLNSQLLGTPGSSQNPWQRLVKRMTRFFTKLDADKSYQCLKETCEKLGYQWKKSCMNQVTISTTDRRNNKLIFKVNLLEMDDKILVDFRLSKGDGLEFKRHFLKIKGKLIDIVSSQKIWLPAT
Cytochrome P450 2C8, sequence (P10632 whole entry): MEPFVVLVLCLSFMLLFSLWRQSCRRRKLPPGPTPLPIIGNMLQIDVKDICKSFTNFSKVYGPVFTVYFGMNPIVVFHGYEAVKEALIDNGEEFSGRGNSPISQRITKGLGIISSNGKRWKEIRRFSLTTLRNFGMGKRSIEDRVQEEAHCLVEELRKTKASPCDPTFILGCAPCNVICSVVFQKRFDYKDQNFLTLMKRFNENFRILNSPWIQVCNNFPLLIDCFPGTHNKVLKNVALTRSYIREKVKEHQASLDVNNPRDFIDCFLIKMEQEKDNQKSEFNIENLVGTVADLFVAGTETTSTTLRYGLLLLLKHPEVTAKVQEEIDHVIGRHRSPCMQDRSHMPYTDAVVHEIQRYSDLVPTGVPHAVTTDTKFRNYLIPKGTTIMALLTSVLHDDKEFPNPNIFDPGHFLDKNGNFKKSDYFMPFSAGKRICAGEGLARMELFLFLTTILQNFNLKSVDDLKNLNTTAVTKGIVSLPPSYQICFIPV
Protein kinase C eta type, sequence (P24723 whole entry): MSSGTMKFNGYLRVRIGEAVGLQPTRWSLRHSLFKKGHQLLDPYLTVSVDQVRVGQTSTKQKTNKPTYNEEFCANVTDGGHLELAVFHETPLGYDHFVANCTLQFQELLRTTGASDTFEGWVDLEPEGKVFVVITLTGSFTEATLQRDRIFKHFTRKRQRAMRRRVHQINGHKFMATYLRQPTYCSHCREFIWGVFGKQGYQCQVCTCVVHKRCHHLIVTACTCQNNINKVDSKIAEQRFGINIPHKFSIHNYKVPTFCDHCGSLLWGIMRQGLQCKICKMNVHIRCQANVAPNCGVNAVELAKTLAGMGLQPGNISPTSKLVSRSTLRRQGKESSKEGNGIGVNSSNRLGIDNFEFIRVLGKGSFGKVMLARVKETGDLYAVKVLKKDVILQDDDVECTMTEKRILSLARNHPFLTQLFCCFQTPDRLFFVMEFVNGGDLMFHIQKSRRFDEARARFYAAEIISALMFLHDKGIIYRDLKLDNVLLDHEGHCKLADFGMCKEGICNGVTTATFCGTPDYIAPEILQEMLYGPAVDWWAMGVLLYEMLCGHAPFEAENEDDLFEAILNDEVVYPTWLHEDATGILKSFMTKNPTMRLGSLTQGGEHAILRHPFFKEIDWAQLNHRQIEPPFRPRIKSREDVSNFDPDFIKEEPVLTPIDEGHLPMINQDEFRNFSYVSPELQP

## Cl.Cn1nccc1-c1ccc(C(=O)N[C@@H]2CNCC[C@H]2c2ccc(F)c(F)c2)c(F)c1
[1]
  Activity: Toxic
[2]
  Activity: Toxic
Homo sapiens [3]
  inhibition: Active
Homo sapiens [4]
  inhibition: Active
[5]
  IC50: 0.028 µM
[6]
  IC50: > 2 µM
[7]
  IC50: 0.629 µM
[8]
  IC50: 1.01 µM
[9]
  IC50: > 10 µM
[10]
  IC50: > 10 µM
[11]
  IC50: > 10 µM
[12]
  IC50: > 10 µM
HaCaT
  Activity: Non-Toxic
[13]
  IC50: 1.03 µM
OS-RC-2
  IC50: 9.9 µM
KHOS/NP [14]
  IC50: 7.47 µM
MDA-MB-231
  IC50: 16.4 µM
LNCaP
  IC50: 0.61 µM
SK-OV-3
  IC50: 4.71 µM
OVCAR-8
  IC50: 3.52 µM
L02
  IC50: 5.4 µM
[15]
  IC50: 16.1 µM
Cytochrome P450 2C8
  IC50: > 100 µM
[16]
  half-life at 50 µM: 1.7 h
[17]
  Cmax: 171 ng/mL
[18]
  Cmax: 208 ng/mL
[19]
  AUC(0-t) at 96 h: 33300 ng·h/mL
[20]
  AUC(0-inf): 36300 ng·h/mL
[21]
  Drug metabolism: Metabolite_Detected
[22]
  Drug metabolism: Metabolite_Detected
[23]
  Drug metabolism: Metabolite_Detected
[24]
  Drug metabolism: Metabolite_Detected
[25]
  Drug metabolism: Metabolite_Detected
[26]
  Activity: Toxic
[27]
  MTD: 100 mg/kg
[28]
  Activity: Toxic
[29]
  Activity: Non-Toxic
[30]
  Activity: Non-Toxic
[31]
  Activity: Non-Toxic
[32]
  Activity: Non-Toxic
786-0
  Activity: Dose-Dependent Effect
KHOS/NP [33]
  TGI: 55.7%
[34]
  Activity: Non-Toxic
[35]
  Activity: Non-Toxic
[36]
  Activity: Non-Toxic
